In US10179770B2, “Quinolines derivatives as novel anticancer agents” (GENOSCIENCE PHARMA, priority 2013, dated 2019):

Legend:
[1] = tested on: PBMC Healthy voluntary donor; assay: Cell growth inhibition assay, PBMC of healthy donors; type: cell-based, human; conditions: Homo sapiens, PBMC
Method: (§1) Each compound was added at different concentrations (combinations of six concentrations) to each well, and cell cultures were incubated for 48 h. Vehicle (H2O) was used as a control, and all compounds were tested in a constant percentage of vehicle. Cell outgrowth was measured using the CellTiter-Glo luminescent cell viability assay as described by the manufacturer (Promega, Ref G7571 Madison, Wis., USA) using a Centro (Berthold, France) plate reader. In each experiment, each point represents the average of triplicates in cell culture. The experimental data are analyzed using a computer program, Graphpad Prism (GraphPad Software, Inc.

[2] = tested on: HCT-116; assay: Cell proliferation assay at 10 μM; type: cell-based; conditions: Homo sapiens, HCT-116, 72 h, read-out: Cell viability observed at 10 μM
In short: (§2)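 A375 and HCT-116 cells grown in DMEM with 10% FBS, seeded overnight, then exposed to compound at 10 μM for 72 h at 37 °C, 5% CO2 against vehicle control. Outgrowth read by MTS (CellTiter 96 Aqueous One) absorbance; each point the mean of two replicates.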

[3] = tested on: A-375; assay: EC50 determination in cancer cell lines; type: cell-based, human; conditions: Homo sapiens, A-375, 72 h
Method: (§3) Compounds were added at different concentrations to each well, and cell cultures were incubated for 72 h. Vehicle (DMSO or H2O) was used as a control, and all compounds were tested in a constant percentage of vehicle. Cell outgrowth was measured using for adherent cells CellTiter […] Aqueous One Solution Cell Proliferation Assay (Promega) and for cell suspension, Sulforhodamine B colorimetric assay as described in Vichai et al. (Vichai, V. and Kirtikara, K. Nat. Protoc. 2006 (1) 1112-1116). Absorbance was measured using an Infinite F200 Pro or Sunrise TECAN plate reader.
(§4) The human melanoma cell line A375, colorectal carcinoma cell line HCT-116, hepatocellular carcinoma cell line HepG2 were cultured in Dulbecco's modified Eagle's medium supplemented with 10% fetal bovine serum and 1% Penicillin-Streptomycin. The human melanoma cell lines SK-MEL-28 and SK-MEL-5 were cultured in Minimum Essential Medium. The colorectal carcinoma cell lines HT-29 and Colo205 were respectively cultured in Mc Coy's and RPMI media. The human leukemia cell lines MV4-11 and KG-1 were cultured in Iscove's Modified Dulbecco's Media. The human leukemia cell line MOLM-14 was cultured in Minimum Essential Medium Alpha Medium supplemented with 10% Fetal Bovine Serum and 1% Penicillin-Streptomycin All culture media were supplemented with 10% fetal bovine serum and 1% Penicillin-Streptomycin except for MV4-11 cell line 20% fetal bovine serum and 1% Penicillin-Streptomycin. All the cell lines were maintained at 37° C. with 5% C02.
(§5) Briefly, adherent cells, A375, HCT-116, HepG2, SK-MEL-28, SK-MEL-5, HT-29 and Colo205 cells were respectively plated at 800, 5,000, 7,000, 2,500, 3,000-5,000, 5,000 or 5,000 cells per well onto 96-well plates in 90 μL of media per well and were allowed to grow overnight before the assay. For MV4-11 and KG-1 cells that grow in suspension, 40,000-60,000 cells were plated onto 96-well plates immediately before the assay. MOLM-14 cell line, that grow in suspension, 30,000 cells were plated onto 96-well plates immediately before the assay.
(§6) The cell growth measure was the same as described in example 51.
(§7) The experimental data are analyzed using a computer program, Graphpad Prism (GraphPad Software, Inc. La Jolla, Calif.) and EC50 values were determined as the dose of compound required to reduce absorbance values to 50% of the signal obtained for vehicle treated cell cultures and were a mean of at least two independent experiments except for EC50 values with (*) where […].

[4] = tested on: A375; assay: Cell proliferation assay at 10 μM; type: cell-based, human; conditions: Homo sapiens, A-375, 72 h, read-out: Cell viability observed at 10 μM
In short: as §2

[5] = tested on: MOLM-14; assay: Cell proliferation assay at 10 μM; type: cell-based, human; conditions: Homo sapiens, MOLM-14, 72 h, read-out: Cell viability observed at 10 μM
In short: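 MOLM-14 suspension cells (30,000/well, MEM alpha with 10% FBS) treated with compound at 10 μM, constant vehicle percentage, for 72 h at 37° C. Outgrowth measured by sulforhodamine B absorbance; each point is mean of two replicates.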

[6] = tested on: patient derived acute myeloid leukemia (AML) cell lines; assay: Cell growth inhibition assay, patient derived AML cells; type: cell-based, human; conditions: Homo sapiens, 48 h
Method: as §1, with “The patient derived acute myeloid leukemia (AML) cells were obtained after written informed consent under the Institut Paoli Calmette (IPC) institutional review board approval and under the strict compliance of the Helsinki declaration on medical research involving human subjects. […] Each” for “Each”

[7] = tested on: SK-MEL-5; assay: EC50 determination in cancer cell lines; type: cell-based; conditions: Homo sapiens, 72 h
Method: as §3, §4, §5, §6, §7

[8] = tested on: KG-1; assay: EC50 determination in cancer cell lines; type: cell-based; conditions: Homo sapiens, 72 h
Method: as §3, §4, §5, §6, §7

[9] = tested on: SK-MEL-28; assay: EC50 determination in cancer cell lines; type: cell-based; conditions: Homo sapiens, 72 h
Method: as §3, §4, §5, §6, §7

[10] = tested on: MV4-11; assay: EC50 determination in cancer cell lines; type: cell-based; conditions: Homo sapiens, 72 h
Method: as §3, §4, §5, §6, §7

[11] = tested on: MOLM-14; assay: EC50 determination in cancer cell lines; type: cell-based; conditions: Homo sapiens, 72 h
Method: as §3, §4, §5, §6, §7

[12] = tested on: HepG2; assay: EC50 determination in cancer cell lines; type: cell-based, human; conditions: Homo sapiens, HepG2, 72 h
Method: as §3, §4, §5, §6, §7

[13] = tested on: HT-29; assay: EC50 determination in cancer cell lines; type: cell-based; conditions: Homo sapiens, 72 h, * n>2
Method: as §3, §4, §5, §6, §7

Row | Compound | EC50 ([1]; PBMC Healthy voluntary donor 1) [µM] | EC50 ([1]; PBMC Healthy voluntary donor 2) [µM] | viability at 10 µM [2] [%] | EC50 [3] [µM] | viability at 10 µM [4] [%] | viability at 10 µM [5] [%] | EC50 ([6]; Patient 3, subtype Tri8) [µM] | EC50 ([6]; Patient 8, subtype FLT3−) [µM] | EC50 ([6]; Patient 9, subtype FLT3+) [µM] | EC50 ([6]; Patient 10, subtype Inv 3) [µM] | EC50 ([6]; Patient 12, subtype 5 & 7) [µM] | EC50 ([6]; Patient 13, subtype MLL) [µM] | EC50 ([6]; Patient 16, subtype Inv 3) [µM] | EC50 [7] [µM] | EC50 [8] [µM] | EC50 [9] [µM] | EC50 [10] [nM] | EC50 [11] [µM] | EC50 [12] [µM] | EC50 [13] [µM]
1 | CC(C)(C)NC1CCN(c2cc(-c3ccc(Cl)cc3)nc3ccccc23)CC1.Cl.Cl [XII-4, 2-(4-chloro-phenyl)-4-(4-N-tert-butylamino-piperidin-1-yl)quinoline dihydrochloride] | 43 | 15 | < 20 | 5 | < 20 | < 20 | 5 | 21 | > 40 | 25 | > 40 | 27 | 19 | 5 | 4 | 3 | 2000 | 3 | – | –
2 | Cc1ccc(-c2cc(N3CCC(NC(C)(C)C)CC3)c3ccccc3n2)cc1.Cl.Cl [XIII-8, 2-(4-methyl-phenyl)-4-(4-N-tert-butylamino-piperidin-1-yl)quinoline dihydrochloride] | 42 | 16 | < 20 | 6 | < 20 | < 20 | 15 | 27 | 22 | 35 | 21 | 25 | 24 | 7 | 9 | 5 | 2000 | 3 | 17 | 16
3 | CCN(CC)C1CCN(C(C)c2cc(-c3ccccc3)nc3ccccc23)CC1.Cl.Cl (centres unmarked) [XIX-3, 2-phenyl-4-{1-[4-(N,N-diethylamino)piperidin-1-yl]-eth-1-yl}quinoline dihydrochloride] | – | 21 | 20 to 40 | 9 | < 20 | 20 to 40 | 8 | 21 | 18 | 28 | 16 | 16 | 22 | 6 | 14 | 6 | 9000 | 11 | 22 | 18
4 | CCN(CC)C1CCN(C(C)c2cc(-c3ccc4ccccc4c3)nc3ccccc23)CC1.Cl.Cl (centres unmarked) [XXIV-3, 2-(2-naphtyl)-4-{1-[4-(N,N-diethylamino)-piperidin-1-yl]-eth-1-yl}quinoline dihydrochloride] | 8 | 7 | < 20 | 3 | < 20 | < 20 | 2 | 10 | 17 | 13 | 11 | 8 | 6 | 3 | 4 | 3 | 3000 | 4 | 11 | 7
